Measured values published in patent EP4772510A2, “BENZAZEPINONE COMPOUND AND USE THEREOF” (HANGZHOU BIO-SINCERITY PHARMA-TECHCO., LTD., priority 2023, dated 2025).

The molecules below were run on HT-29 cells (assay: Inhibition of TNF-α-induced necroptosis of HT-29 cells (SRB method)). Conditions: Homo sapiens, HT-29, TNF-α 20 ng/mL + BV6 2 µM + Z-VAD-FMK 20 µM, 18 h.
Format: cell-based, human
Method in brief: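 HT-29 cells (3 × 10^4/well, 24 h) were treated 18 h with compound (8 three-fold dilutions, 1000.00-0.46 nM, duplicate) plus TNF-α 20 ng/mL, BV6 2 µM and Z-VAD-FMK 20 µM final, at 37 °C. Viability was read by SRB absorbance; EC50 values were fitted.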
`CN1C(=O)[C@@H](NC(=O)c2nnc(Cc3ccccc3)[nH]2)COc2ccccc21` [GSK2982772, (S)-5-benzyl-N-(5-methyl-4-oxo-2,3,4,5-tetrahydrobenzo[b][1,4]oxazepin-3-yl)-4H-1,2,4-triazole-3-carboxamide, reference compound] showed an EC50 of 5 to 10 nM.
In the case of `Cn1cc(C#Cc2cc3c4c(c2)CCN4C(=O)C(NC(=O)c2ncn(Cc4c(F)cccc4F)n2)CC3)cn1` (stereo not drawn) [III-1, 1-(2,6-difluorobenzyl)-N-(9-((1-methyl-1H-pyrazol-4-yl)ethynyl)-4-oxo-1,2,3,4,6,7-hexahydroazepino[3,2,1-hi]indol-3-yl)-1H-1,2,4-triazole-3-carboxamide], the EC50 is reported as < 5 nM.
`Cn1cc(C#Cc2cc3c4c(c2)CCN4C(=O)C(NC(=O)c2ncn(Cc4cc(F)ccc4F)n2)CC3)cn1` (stereo not drawn) [III-10, 1-(2,5-difluorobenzyl)-N-(9-((1-methyl-1H-pyrazol-4-yl)ethynyl)-4-oxo-1,2,3,4,6,7-hexahydroazepino[3,2,1-hi]indol-3-yl)-1H-1,2,4-triazole-3-carboxamide] was tested, and the EC50 was < 5 nM.
With `Cn1cc(C#Cc2cc3c4c(c2)CCN4C(=O)C(NC(=O)c2ncn(Cc4ccc(F)c(F)c4)n2)CC3)cn1` (stereo not drawn) [III-12, 1-(3,4-difluorobenzyl)-N-(9-((1-methyl-1H-pyrazol-4-yl)ethynyl)-4-oxo-1,2,3,4,6,7-hexahydroazepino[3,2,1-hi]indol-3-yl)-1H-1,2,4-triazole-3-carboxamide] the EC50 was 10 to 100 nM.
For `O=C(NC1CCc2cc(C#Cc3cnn(C(F)F)c3)cc3c2N(CC3)C1=O)c1ncn(Cc2cc(F)ccc2F)n1` (stereo not drawn) [III-19, 1-(2,5-difluorobenzyl)-N-(9-((1-(difluoromethyl)-1H-pyrazol-4-yl)ethynyl)-4-oxo-1,2,3,4,6,7-hexahydroazepino[3,2,1-hi]indol-3-yl)-1H-1,2,4-triazole-3-carboxamide], the EC50 was < 5 nM.
With `O=C(NC1CCc2cc(C#Cc3cnn(C(F)F)c3)cc3c2N(CC3)C1=O)c1ncn(Cc2ccccc2F)n1` (stereo not drawn) [III-21, N-(9-((1-(difluoromethyl)-1H-pyrazol-4-yl)ethynyl)-4-oxo-1,2,3,4,6,7-hexahydroazepino[3,2,1-hi]indol-3-yl)-1-(2-fluorobenzyl)-1H-1,2,4-triazole-3-carboxamide] the EC50 was < 5 nM.
`C#Cc1cc2c3c(c1)CCN3C(=O)C(NC(=O)c1ncn(Cc3c(F)cccc3F)n1)CC2` (stereo not drawn) [III-26, 1-(2,6-difluorobenzyl)-N-(9-ethynyl-4-oxo-1,2,3,4,6,7-hexahydroazepino[3,2,1-hi]indol-3-yl)-1H-1,2,4-triazole-3-carboxamide] was tested, and the EC50 was < 5 nM.

Same assay, conditions: TNF-α 20 ng/mL + BV6 2 µM + Z-VAD-FMK 20 µM, 18 h
`O=C(NC1CCc2cc(C#Cc3cnn(C(F)F)c3)cc3c2N(CC3)C1=O)c1ncn(Cc2c(F)cccc2F)n1` (stereo not drawn) [III-17, 1-(2,6-difluorobenzyl)-N-(9-((1-(difluoromethyl)-1H-pyrazol-4-yl)ethynyl)-4-oxo-1,2,3,4,6,7-hexahydroazepino[3,2,1-hi]indol-3-yl)-1H-1,2,4-triazole-3-carboxamide] was tested, and the EC50 was < 5 nM.
With “N-(9-((1-(difluoromethyl)-1H-pyrazol-4-yl)ethynyl)-4-oxo-1,2,3,4,6,7-hexahydroazepino[3,2,1-hi]indol-3-yl)-1-(4-methylbenzyl)-1H-1,2,4-triazole-3-carboxamide [III-25]” the EC50 was 5 to 10 nM.
